# Several values for one entry are separate records, joined by “and”; a condition that tells them apart may be missing. Identical values can stand only once. Like-named read-outs stand apart in the source and are kept apart here.
# Experiments:
# HRV 14 = experiment: Antiviral assay, XTT method, HRV 14; format: cell-based
# HRV 16 = experiment: Antiviral assay, XTT method, HRV 16; format: cell-based
# Apopain (caspase-3) = molecular target: T1, Apopain (caspase-3) (Homo sapiens, UniProt P42574); experiment: Apopain (Caspase-3) Regulation Assay (FluorAce Apopain Assay Kit); format: biochemical; conditions: Apopain modulation: Inhibitor or Activator
# T1 construct: purchased Bio-rad FluorAce Apopain Assay Kit (booklet 4100119)
# T1 sequence (P42574 29-175 limits assumed): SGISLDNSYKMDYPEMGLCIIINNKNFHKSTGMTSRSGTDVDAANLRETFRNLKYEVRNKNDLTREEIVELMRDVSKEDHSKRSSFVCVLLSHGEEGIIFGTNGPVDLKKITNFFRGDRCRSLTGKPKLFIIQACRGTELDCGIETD
# T1 sequence (P42574 176-277 limits assumed): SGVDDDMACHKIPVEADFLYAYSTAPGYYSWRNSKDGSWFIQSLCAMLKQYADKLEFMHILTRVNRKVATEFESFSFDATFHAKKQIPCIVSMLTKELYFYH
# Protocol: VI: Apopain (Caspase-3) Regulation Assay
# The FluorAce™ Apopain Assay Kit (Bio-rad) was employed in multiwell format. Compounds assayed were diluted 5-fold in distilled water (from stock solutions in ethanol or DMSO) and centrifuged (5′, 14K rpm). 10 μL of the supernatant was further diluted in wells containing 100 μL distilled water and 40 μL 6×Buffer (41.7 mM PIPES, pH 7.4, 8.3 mM EDTA, 0.42% CHAPS, 20.8 mM DTT). This process was carried out twice to yield duplicate wells for each compound. Control wells were prepared by addition of EtOH and DMSO (5-fold diluted in distilled water) into wells containing 6×Buffer and distilled water (40 μL and 100 μL, respectively), to form 8 wells with each solvent. Enzyme (stock solution 10-fold diluted in distilled water, see Bio-rad booklet 4100119) was added to one set of compound-containing cells and to 8 control wells (4 with ethanol and 4 with DMSO). The plate was preincubated for ˜80′ at 27°-28° C. Substrate (Z-DEVD-AFC, 490 μM, 40 μL) was then added to all wells. The plate was left at room temperature and fluorescence (360/40↑530/20↓) was measured at several time points (FL500 fluorimetric reader, Bio-tek instruments). Fluorescence at enzyme-containing wells was background-subtracted at each time point and initial rates were determined by linear regression (typically R^2>0.97). Percentage inhibition and activation was determined by relating the slope with compound to the control slope (with appropriate solvent). IC50 values are extrapolated.
# Hl-Hela cells = experiment: Cytotoxicity by XTT assay (treated, mock-infected cells); conditions: read-out: TC50; Format 1; concentration that retards cell growth by 50%, mock-infected Hl-Hela cells
# [1] = as above; conditions: human, H1-HeLa cells (ATCC), mock-infected
# HRV 1A = experiment: Antiviral assay, XTT method, HRV 1A; format: cell-based
# HRV 1B = experiment: Antiviral assay, XTT method, HRV 1B; format: cell-based
# [2] = HRV 14, Format 1, restores 50% of viral-caused decrease in cell viability
SMILES,"IC50 (HRV 14; HRV 14, Format 2)","IC50 (HRV 16; HRV 16, Format 2)",IC50 (HRV 14; [2]),CC50 (Hl-Hela cells),also measured
Cc1cc(O)c(C(=O)c2ccccc2O)cc1Cl [compound 144],130 ± 40 µM,2.1 ± 1.6 µM,–,–,–
CC(=O)c1cccc(C#N)c1O [SA#51],–,–,–,–,Activity (Apopain (caspase-3)): Inhibitor
CCCCCC(=O)c1cc(Cl)c(O)c(Cl)c1O [SA#116],50 ± 7 µM,61 ± 37 µM,13 µM,24 ± 6 µM,"IC50 (HRV 16; HRV 16, Format 1): 21 µM"
CC(=O)c1cc(F)ccc1O [compound 27],–,47 ± 8 µM,444 µM,–,CC50 [1]: > 1250 µM; Activity (Apopain (caspase-3)): Inhibitor
CCCCCC(=O)c1c(O)c(Cl)c(OC)c(Cl)c1O [SA#15],5 ± 1 µM,1.4 ± 0.8 µM,–,–,Activity (Apopain (caspase-3)): Activator
CC(=O)c1cc(Cl)cc([N+](=O)[O-])c1O [compound 31],11 ± 1 µM,35 ± 26 µM,14 µM,12 ± 1 µM,IC50 (HRV 1A; Format 2): 80 ± 62 µM
O=Cc1cc(I)cc(I)c1O [compound 47],12 ± 2 µM,–,–,–,Activity (Apopain (caspase-3)): Activator
Cc1ccc(O)c(C(=O)c2ccccc2O)c1 [compound 143],–,8 ± 8 µM,–,–,–
O=C(c1ccccc1O)c1ccccc1O [compound 131],10 µM and 10.5 µM,0.5 ± 0.4 µM,0.6 µM,–,IC50 (HRV 1A; Format 2): 43 ± 9 µM
COC(=O)c1c(O)cc(C)cc1O [compound 147],–,70 ± 50 µM,–,–,–
CCCCCC(=O)c1c(OC)cc(O)c(Cl)c1O [SA#134],122 ± 14 µM,13 ± 6 µM,63 µM,48 ± 6 µM,"IC50 (HRV 16; HRV 16, Format 1): 12 µM"
CC(=O)c1c(O)c(Cl)cc(Cl)c1O [SA#109],590 ± 320 µM,–,–,–,Activity (Apopain (caspase-3)): Inhibitor
CC(=O)c1c(O)ccc2ccccc12 [compound 35],42 ± 20 µM,38 ± 14 µM,62 µM,180 ± 10 µM,"IC50 (HRV 1A; Format 2): 630 ± 470 µM; IC50 (HRV 1B; HRV 1B, Format 2): 240 ± 140 µM"
CCCCCC(=O)c1c(O)c(Cl)c(OC)c(Cl)c1OCC(N)=O [compound 118],–,–,380 µM,122 ± 6 µM,IC50 (HRV 1A; Format 1): 81 µM
CCCCCC(=O)c1c(O)cc(O)c(Cl)c1OC [compound 125],–,–,45 µM,50 ± 5 µM,"IC50 (HRV 16; HRV 16, Format 1): 60 µM"
CC(=O)c1cc(Cl)c(C)cc1O [compound 41],160 ± 70 µM,–,–,–,–
CCOC(=O)c1c(O)cc(O)c(C(C)=O)c1O [SA#132],–,–,17 µM,29 ± 5 µM,"IC50 (HRV 1A; Format 1): 13 µM; IC50 (HRV 1B; HRV 1B, Format 1): 24 µM"
COc1ccc(C(=O)c2ccccc2O)c(O)c1 [compound 1],23 ± 20 µM,165 ± 134 µM,16 µM,50 ± 10 µM,–
O=C(CCc1ccc(O)cc1)c1c(O)cc(O)cc1O [compound 91],9 ± 4 µM,50 ± 10 µM,–,–,"IC50 (HRV 1A; Format 2): 130 ± 14 µM; Activity (Apopain (caspase-3)): Inhibitor; IC50 (HRV 1B; HRV 1B, Format 2): 26 ± 15 µM"
CC(=O)c1cc(C)cc([N+](=O)[O-])c1O [compound 30],31 ± 12 µM,29 ± 24 µM,55 µM,–,CC50 [1]: 67 ± 8 µM; Activity (Apopain (caspase-3)): Inhibitor
O=c1cc(-c2ccccc2)oc2cc(O)cc(O)c12 [compound 83],250 ± 90 µM,–,–,–,–
O=C(CCc1ccccc1)c1ccccc1O [compound 42],120 ± 40 µM,–,–,–,"IC50 (HRV 1A; Format 2): 210 ± 70 µM; IC50 (HRV 1B; HRV 1B, Format 2): 29 ± 1 µM"

SMILES,"IC50 (HRV 14; HRV 14, Format 2)","IC50 (HRV 16; HRV 16, Format 2)",IC50 (HRV 14; [2]),CC50 (Hl-Hela cells),also measured
O=Cc1cc([N+](=O)[O-])ccc1O [compound 46],170 ± 100 µM,–,–,–,Activity (Apopain (caspase-3)): Inhibitor
COc1cc(O)c(C(C)=O)c(OC)c1 [compound 14],–,–,–,780 ± 206 µM,"IC50 (HRV 16; HRV 16, Format 1): 225 µM"
CC(=O)c1ccc(O)cc1O [compound 7],–,810 ± 180 µM,–,–,–
CC(=O)c1cc(O)ccc1O [compound 8],230 ± 170 µM,35 ± 7 µM,–,–,"IC50 (HRV 1A; Format 2): 141 ± 25 µM; Activity (Apopain (caspase-3)): Inhibitor; IC50 (HRV 1B; HRV 1B, Format 2): 33 ± 3 µM"
CCCCCC(=O)c1ccc(O)cc1O [compound 114],40 ± 30 µM,70 ± 60 µM,–,–,–
"CC(=O)c1c(O)cccc1OCC(N)=O [SA#121, 2-(2-acetyl-3-hydroxyphenoxy)-acetamide]",120 ± 50 µM,420 ± 140 µM,189 µM,–,CC50 [1]: 425 ± 8 µM; IC50 (HRV 1A; Format 1): 198 µM
O=C(c1ccccc1O)c1cc(Cl)ccc1O [compound 137],–,–,0.6 µM,–,IC50 (HRV 1A; Format 1): 6.2 µM
CC(=O)c1cc(Cl)ccc1O [compound 12],150 µM and 290 µM,590 ± 300 µM,–,> 2500 µM,"IC50 (HRV 16; HRV 16, Format 1): 137 µM; IC50 (HRV 1B; HRV 1B, Format 2): 305 ± 55 µM"
O=Cc1c(O)cc(O)cc1O [compound 34],–,–,94 µM,410 ± 30 µM,–
CC(=O)c1c(O)cc(O)cc1O [SA#110],–,–,192 µM,–,"CC50 [1]: 548 ± 27 µM; IC50 (HRV 16; HRV 16, Format 1): 425 µM; Activity (Apopain (caspase-3)): Inhibitor"
O=C(c1ccccc1)c1ccccc1O [compound 136],13 ± 5 µM,6 ± 3 µM,6.3 µM,28 ± 2 µM,–
O=Cc1cc(Cl)cc(Cl)c1O [compound 33],14 ± 3 µM,6 ± 1 µM,–,–,"IC50 (HRV 1A; Format 2): 9 ± 1 µM; Activity (Apopain (caspase-3)): Inhibitor; IC50 (HRV 1B; HRV 1B, Format 2): 4 ± 1 µM"
O=C(c1ccccc1O)c1cc(Br)ccc1O [compound 142],59 ± 4 µM,27 ± 27 µM,–,–,IC50 (HRV 1A; Format 2): 25 ± 12 µM
CC(=O)c1cc(Cl)cc(Cl)c1O [compound 29],6 ± 2 µM,6 ± 2 µM,4.8 µM,29 ± 8 µM,"IC50 (HRV 1A; Format 2): 19 ± 8 µM; IC50 (HRV 1B; HRV 1B, Format 2): 8 ± 5 µM"
CC(=O)c1c(O)cccc1O [compound 9],110 ± 14 µM,200 ± 110 µM,–,–,Activity (Apopain (caspase-3)): Activator
CC(=O)c1ccccc1O [compound 6],210 ± 170 µM,–,–,–,–
CCC(=O)c1cc(O)ccc1O [compound 36],32 ± 4 µM,44 ± 15 µM,27 µM,1720 ± 660 µM,–
CC(=O)c1cc(Br)ccc1O [compound 28],91 ± 62 µM,159 ± 44 µM,6.2 µM,1230 ± 610 µM,–
O=c1cc(-c2ccccc2)oc2c(Cl)c(O)c(Cl)c(O)c12 [compound 100],27 ± 25 µM,–,–,–,–
O=C(CCc1ccccc1)c1cc(Cl)ccc1O [SA#43],–,–,–,–,IC50 (HRV 14): 30 ± 20 µM; IC50 (HRV 16): 340 ± 70 µM; IC50 (HRV 1B): 40 ± 10 µM
CC(=O)c1cc(Br)cc(Br)c1O [compound 38],10 ± 2 µM,6 ± 2 µM,26 µM,59 ± 4 µM,–
O=c1c(O)c(-c2ccc(O)cc2)oc2cc(O)cc(O)c12 [compound 90],1.2 ± 0.5 µM,7 ± 4 µM,–,–,"IC50 (HRV 1A; Format 2): 5 ± 1 µM; IC50 (HRV 1B; HRV 1B, Format 2): 7 ± 4 µM"

# Source: patent publication US6828350B1, “Modulators of cysteine protease” (Exegenics Inc., priority 1997, dated 2004)
